Consider 2 substances from US9918934B2, “Linker-based lecithin microemulsion delivery vehicles” (priority 2006, dated 2018).

Series [1] relates to reconstructed human skin EpiDerm™ EPI-200. In kind it is in vitro ADME. The protocol: Lidocaine permeability was measured in vitro through reconstructed human skin EpiDerm™ EPI-200 and dorsal pig ear skin using selected formulations of examples 1 through 3. The model skin was placed in a commercial MATTEK™ Permeation Device (MPD). A test formulation (0.4 mL) was applied in the donor compartment. The receptor compartment was filled with 5 mL of PBS (0.01M phosphate, 0.137M NaCl, pH 7.4). At predetermined time, the receiver solution was withdrawn completely from the receptor compartment and was immediately replaced by fresh buffer solution. Sink conditions were maintained at all times. At 5.5 h, the experiment was terminated. All permeation experiments were conducted in triplicate at room temperature.
Lidocaine in receiver solutions was assayed by a UV spectrophotometer ([…] PLUS™, Amersham Pharmacia Biotech, U.S.A.). Receiver solutions were diluted with methanol and the absorbance at 230 nm were measured. A linear calibration curve for lidocaine was obtained at 230 nm in a range of 0-100 μg/mL with a linearity of 0.999.
The cumulative lidocaine amount permeated across the skin was plotted as a function of time (h), and average steady-state flux (J, μg/h/cm2) was calculated by dividing the slope from the linear part of the curve by the area of the exposed skin surface (0.256 cm2). […]

For another series, the system named is dorsal pig ear skin. Type of series: in vitro ADME. The protocol:
The model skin was placed in a commercial MATTEK™ Permeation Device (MPD). A test formulation (0.4 mL) was applied in the donor compartment. […] At predetermined time, the receiver solution was withdrawn completely from the receptor compartment and was immediately replaced by fresh buffer solution. Sink conditions were maintained at all times. At 5.5 h, the experiment was terminated. All permeation experiments were conducted in triplicate at room temperature.
Receiver solutions were diluted with methanol and the absorbance at 230 nm were measured.
The cumulative lidocaine amount permeated across the skin was plotted as a function of time (h), and average steady-state flux (J, μg/h/cm2) was calculated by dividing the slope from the linear part of the curve by the area of the exposed skin surface (0.256 cm2).
To measure the concentration of lidocaine in pig ear skin, the tissue was removed from the MATTEK™ permeation device, rinse with PBS solution and blotted with lint-free paper tissue to remove any excess of fluid. The tissue was immersed in 2 mL of methanol for a period of 24 hr. After that time, the concentration of lidocaine was measured using the HPLC method described above. The mass of lidocaine extracted is divided by the volume of the tissue (tissue thickness*cross sectional area) to obtain the equivalent lidocaine concentration in the skin. The skin permeability is calculated by dividing the transdermal flux by the lidocaine skin concentration.
The formulation LO-32 (a Type II lecithin linker microemulsion) was reformulated using lower lecithin concentration. The transdermal flux through pig ear dorsal skin was also evaluated for selected formulations, and following the procedures described above. […] (Where: (a) is lecithin; (b) is sorbitan monooleate; (c) is octanoic acid; (d) is sodium octanoate; (e) is water; (f) is lidocaine; (g) is isopropyl myristate; and (v) is microemulsion volume. Concentrations are expressed on a weight percentage basis (w/w).)

Take Pentanol: in series [1], the “MatTek Flux (lidocaine steady-state transdermal flux)” value is recorded as 160 +/− 10 μg/hr-cm^2. In addition, in the series with dorsal pig ear skin, the “Pig ear skin Flux (lidocaine steady-state transdermal flux)” value is 130 +/− 20 μg/hr-cm^2, the “Pig ear skin Lidocaine in skin” value came out at 5800 ± 200 µg/mL and the Pig skin permeability is reported as 220 +/− 20 μm/hr.
On to Water, for which the “MatTek Flux (lidocaine steady-state transdermal flux)” value in series [1] was 320 +/− 20 μg/hr-cm^2. In addition, in the series on dorsal pig ear skin, the “Flux (lidocaine transdermal flux through excised pig ear skin)” value is reported as 70 +/− 10 μg/cm^2, the “Pig ear skin Flux (lidocaine steady-state transdermal flux)” value is given as 110 +/− 10 μg/hr-cm^2, the “Pig ear skin Lidocaine in skin” value stood at 6800 ± 400 µg/mL and the Pig skin permeability is recorded as 160 +/− 20 μm/hr.
